Data published in patent US20090226527A1, “Particulate-stabilized injectable pharmacutical compositions of posaconazole” (priority 2004, published 2009).
Converted amounts (≈) assume the structure as drawn. Like-named read-outs stand apart in the source and are kept apart here.

What was measured:
[1] = Orally administered Posaconazole: plasma Cmax/Cavg by quartile and response rate for aspergillosis; type: in vivo, patients; conditions: human, plasma, po, 800 mg/day
Source text: (§1) In order to determine the target dosing for intravenous administration, it was necessary to determine a target range for mean Cavg and mean Cmax. Previous studies on orally administered Posaconazole are instructive in this regard.
(§2) At the same time, posaconazole has a long half-life and a large volume of distribution that results in sustained plasma levels and extensive penetration into body tissues with a likely accumulation in tissues. […] Thus, it can be inferred that posaconazole's long half-life and large volume of distribution results in sustained plasma and tissue levels allowing for safer and better tolerated pharmacokinetic behavior.

aspergillosis = assay: as above; type: in vivo, patients
Source text: as §1, §2

[2] = Rising Multiple Dose Study: plasma pharmacokinetics, safety, relative bioavailability of POS IV vs POS oral suspension; type: in vivo, human
Method: A rising, multiple dose assessment of the safety, tolerability, and pharmacokinetics of intravenous Posaconazole in healthy subjects was also conducted. The pharmacokinetic objectives of the study were two-fold: first, to determine the single-dose and multiple-dose pharmacokinetic (PK) profiles of POS IV in healthy subjects; and second, to determine the relative bioavailability of POS IV vs POS oral suspension administered under fed conditions. The formulation used in this study is that of Example 8.
Plasma obtained from blood samples was analyzed for POS using a validated LC-MS/MS method. Plasma pharmacokinetic parameters were determined. Safety was assessed by ECGs, clinical laboratory tests, vital signs, and adverse event monitoring.

[3] = Solubility of Posaconazole in water; type: physicochemical
[4] = test system: infectious agents (strains tested); assay: organism not typed; type: cell-based

CCC([C@@H](C)O)n1ncn(-c2ccc(N3CCN(c4ccc(OC[C@@H]5CO[C@@](Cn6cncn6)(c6ccc(F)cc6F)C5)cc4)CC3)cc2)c1=O (stereo partly shown) [Posaconazole]
Cmax ([1]; Quartile 1, n = 17): 142 ng/mL | Cmax ([1]; Quartile 2, n = 17): 467 ng/mL | Cmax ([1]; Quartile 3, n = 17): 852 ng/mL | Cmax ([1]; Quartile 4, n = 16): 1480 ng/mL | Response (response rate for aspergillosis) (aspergillosis; Quartile 1): 24% | Plasma Cavg, mean (aspergillosis; Quartile 1, n = 17): 134 ng/mL | Response (response rate for aspergillosis) (aspergillosis; Quartile 2): 53% | Plasma Cavg, mean (aspergillosis; Quartile 2, n = 17): 411 ng/mL | Response (response rate for aspergillosis) (aspergillosis; Quartile 3): 53% | Plasma Cavg, mean (aspergillosis; Quartile 3, n = 17): 719 ng/mL | Response (response rate for aspergillosis) (aspergillosis; Quartile 4): 71% | Plasma Cavg, mean (aspergillosis; Quartile 4, n = 16): 1250 ng/mL | Dose proportionality of exposure (Cmax and AUC) ([2]; 100- to 400-mg range): approximately dose proportional | Safety and tolerability ([2]; healthy subjects, 100-400 mg): safe and well tolerated | Daily dosing needed to achieve steady-state ([2]; human, in vivo): 6 to 7 days | clearance ([2]; human, in vivo, Mean systemic clearance at steady-state): 90 to 93.3 mL/min | clearance ([2]; human, in vivo, Mean systemic clearance, single-dose administration on Day 1): 137 to 192 mL/min | half-life ([2]; human, in vivo, Single-dose half-life): 26 to 29 h | half-life ([2]; human, in vivo, plasma, read-out: Mean steady-state terminal half-life): 33 to 37 h | Solubility in water [3]: minimally soluble in water | MIC ([4]; Absidia spp, read-out: Geometric Mean MIC): 0.177 µg/mL (≈ 0.253 µM) | MIC ([4]; Absidia spp, read-out: MIC[90]): 0.031 to 0.5 µg/mL (≈ 0.0442 to 0.713 µM) | MIC ([4]; Alternaria spp, read-out: Geometric Mean MIC): 0.101 µg/mL (≈ 0.144 µM) | MIC ([4]; Alternaria spp, read-out: MIC[90]): 0.25 µg/mL (≈ 0.357 µM) | MIC ([4]; Apophysomyces spp, read-out: Geometric Mean MIC): 0.34 µg/mL (≈ 0.485 µM) | MIC ([4]; Apophysomyces spp, read-out: MIC[90]): 0.031 to 4 µg/mL (≈ 0.0442 to 5.71 µM) | MIC ([4]; Arthroderma terrestre, Trichophyton terrestre, read-out: Geometric Mean MIC): 0.125 µg/mL (≈ 0.178 µM) | MIC ([4]; Arthroderma terrestre, Trichophyton terrestre, read-out: MIC[90]): 0.125 µg/mL (≈ 0.178 µM) | MIC ([4]; Aspergillus flavus, read-out: Geometric Mean MIC): 0.079 µg/mL (≈ 0.113 µM) | MIC ([4]; Aspergillus flavus, read-out: MIC[90]): 0.25 µg/mL (≈ 0.357 µM) | MIC ([4]; Aspergillus fumigatus, read-out: Geometric Mean MIC): 0.118 µg/mL (≈ 0.168 µM) | MIC ([4]; Aspergillus fumigatus, read-out: MIC[90]): 0.5 µg/mL (≈ 0.713 µM) | MIC ([4]; Aspergillus nidulans, read-out: Geometric Mean MIC): 0.055 µg/mL (≈ 0.0785 µM) | MIC ([4]; Aspergillus nidulans, read-out: MIC[90]): 0.25 µg/mL (≈ 0.357 µM) | MIC ([4]; Aspergillus niger, read-out: Geometric Mean MIC): 0.195 µg/mL (≈ 0.278 µM) | MIC ([4]; Aspergillus niger, read-out: MIC[90]): 0.5 µg/mL (≈ 0.713 µM) | MIC ([4]; Aspergillus sydowii, read-out: Geometric Mean MIC): 0.177 µg/mL (≈ 0.253 µM) | MIC ([4]; Aspergillus sydowii, read-out: MIC[90]): 0.031 to 0.5 µg/mL (≈ 0.0442 to 0.713 µM) | MIC ([4]; Aspergillus terreus, read-out: Geometric Mean MIC): 0.052 µg/mL (≈ 0.0742 µM) | MIC ([4]; Aspergillus terreus, read-out: MIC[90]): 0.25 µg/mL (≈ 0.357 µM) | MIC ([4]; Aspergillus ustus, read-out: Geometric Mean MIC): 1.64 µg/mL (≈ 2.34 µM) | MIC ([4]; Aspergillus ustus, read-out: MIC[90]): 0.25 to 8 µg/mL (≈ 0.357 to 11.4 µM) | MIC ([4]; Bipolaris spp, read-out: Geometric Mean MIC): 0.354 µg/mL (≈ 0.505 µM) | MIC ([4]; Bipolaris spp, read-out: MIC[90]): 0.125 to 1 µg/mL (≈ 0.178 to 1.43 µM) | MIC ([4]; Bjerkandera adusta, read-out: Geometric Mean MIC): 0.25 µg/mL (≈ 0.357 µM) | MIC ([4]; Bjerkandera adusta, read-out: MIC[90]): 0.25 µg/mL (≈ 0.357 µM) | MIC ([4]; Blastomyces dermatitidis, read-out: Geometric Mean MIC): 0.053 µg/mL (≈ 0.0756 µM) | MIC ([4]; Blastomyces dermatitidis, read-out: MIC[90]): 0.125 µg/mL (≈ 0.178 µM) | MIC ([4]; Candida albicans, read-out: Geometric Mean MIC): 0.037 µg/mL (≈ 0.0528 µM) | MIC ([4]; Candida albicans, read-out: MIC[90]): 0.25 µg/mL (≈ 0.357 µM) | MIC ([4]; Candida dubliniensis, read-out: Geometric Mean MIC): 0.062 µg/mL (≈ 0.0885 µM) | MIC ([4]; Candida dubliniensis, read-out: MIC[90]): 0.25 µg/mL (≈ 0.357 µM) | MIC ([4]; Candida tropicalis, read-out: Geometric Mean MIC): 0.081 µg/mL (≈ 0.116 µM) | MIC ([4]; Candida tropicalis, read-out: MIC[90]): 0.25 µg/mL (≈ 0.357 µM) | MIC ([4]; Clavispora lusitaniae, Candida lusitaniae, read-out: Geometric Mean MIC): 0.048 µg/mL (≈ 0.0685 µM) | MIC ([4]; Clavispora lusitaniae, Candida lusitaniae, read-out: MIC[90]): 0.125 µg/mL (≈ 0.178 µM) | MIC ([4]; Coccidioides immitis, read-out: Geometric Mean MIC, Coccidioides immitis): 0.304 µg/mL (≈ 0.434 µM) | MIC ([4]; Coccidioides immitis, read-out: MIC[90], Coccidioides immitis): 1 µg/mL (≈ 1.43 µM) | MIC ([4]; Cryptococcus neoformans, read-out: Geometric Mean MIC): 0.119 µg/mL (≈ 0.17 µM) | MIC ([4]; Cryptococcus neoformans, read-out: MIC[90]): 0.25 µg/mL (≈ 0.357 µM) | MIC ([4]; Curvularia spp, read-out: Geometric Mean MIC): 0.072 µg/mL (≈ 0.103 µM) | MIC ([4]; Curvularia spp, read-out: MIC[90]): 0.031 to 0.125 µg/mL (≈ 0.0442 to 0.178 µM) | MIC ([4]; Debaryomyces hansenii, Candida famata, read-out: Geometric Mean MIC): 0.125 µg/mL (≈ 0.178 µM) | MIC ([4]; Debaryomyces hansenii, Candida famata, read-out: MIC[90]): 0.5 µg/mL (≈ 0.713 µM) | MIC ([4]; Diutina rugosa, Candida rugosa, read-out: Geometric Mean MIC): 0.039 µg/mL (≈ 0.0557 µM) | MIC ([4]; Diutina rugosa, Candida rugosa, read-out: MIC[90]): 0.5 µg/mL (≈ 0.713 µM) | MIC ([4]; Dujonia zeylanoides, Candida zeylanoides, read-out: Geometric Mean MIC): 0.031 µg/mL (≈ 0.0442 µM) | MIC ([4]; Dujonia zeylanoides, Candida zeylanoides, read-out: MIC[90]): 0.008 to 0.25 µg/mL (≈ 0.0114 to 0.357 µM) | MIC ([4]; Epidermophyton floccosum, read-out: Geometric Mean MIC): 0.029 µg/mL (≈ 0.0414 µM) | MIC ([4]; Epidermophyton floccosum, read-out: MIC[90]): 0.125 µg/mL (≈ 0.178 µM) | MIC ([4]; Exophiala dermatidis, read-out: Geometric Mean MIC): 0.125 µg/mL (≈ 0.178 µM) | MIC ([4]; Exophiala dermatidis, read-out: MIC[90]): 0.125 µg/mL (≈ 0.178 µM) | MIC ([4]; Exophiala dermatitidis, Wangiella dermatitidis, read-out: Geometric Mean MIC): 0.088 µg/mL (≈ 0.126 µM) | MIC ([4]; Exophiala dermatitidis, Wangiella dermatitidis, read-out: MIC[90]): 0.063 to 0.125 µg/mL (≈ 0.0899 to 0.178 µM) | MIC ([4]; Exophiala jeanselmei, read-out: Geometric Mean MIC): 0.287 µg/mL (≈ 0.41 µM) | MIC ([4]; Exophiala jeanselmei, read-out: MIC[90]): 0.5 µg/mL (≈ 0.713 µM)
